Organism: Rattus norvegicus
Assay: DrugMatrix - Regimen: Daily Repeat
Format: toxicity, organism-based, Sprague-Dawley
Parameters: regimen Daily Repeat, gender Male, age 6-8 weeks
Conditions: in vivo, po, route oral GAVAGE, vehicle 100 % WATER
[1] = 0 mg/kg, 72 h, tissue Blood, dose level Control, time 3 day
[2] = 0 mg/kg, 72 h, tissue Plasma, dose level Control, time 3 day
[3] = 0 mg/kg, 120 h, tissue Blood, dose level Control, time 5 day
[4] = 0 mg/kg, 120 h, tissue Plasma, dose level Control, time 5 day
[5] = 24 mg/kg, 72 h, tissue Blood, dose level Low, time 3 day
[6] = 24 mg/kg, 72 h, tissue Plasma, dose level Low, time 3 day
[7] = 24 mg/kg, 120 h, tissue Blood, dose level Low, time 5 day
[8] = 24 mg/kg, 120 h, tissue Plasma, dose level Low, time 5 day

Sequence: COLISTIN
- BASOPHIL [1]: 0%
- EOSINOPHIL [1]: 0.5%
- ERYTHROCYTE COUNT [1]: 5.8 x10E6/uL
- HEMATOCRIT [1]: 35.07%
- LEUKOCYTE COUNT [1]: 13.7 x10E3/uL
- MEAN CORPUSCULAR HEMOGLOBIN [1]: 24.38 pg
- MEAN CORPUSCULAR HEMOGLOBIN CONCENTRATION [1]: 40.28 G/DL
- MONOCYTE [1]: 2.67%
- NEUTROPHIL [1]: 14.5%
- PLATELET COUNT [1]: 911.5 x10E3/uL
- ALANINE AMINOTRANSFERASE [2]: 36.83 u/L
- ALKALINE PHOSPHATASE [2]: 399.83 u/L
- ASPARTATE AMINOTRANSFERASE [2]: 66 u/L
- BLOOD UREA NITROGEN [2]: 14.67 mg/dL
- CHOLESTEROL [2]: 66.33 mg/dL
- CREATINE PHOSPHOKINASE [2]: 139.5 u/L
- CREATININE [2]: 0.92 mg/dL
- GLUCOSE [2]: 175 mg/dL
- PHOSPHORUS [2]: 11.42 mg/dL
- TOTAL BILIRUBIN [2]: 1.13 mg/dL
- TOTAL PROTEIN [2]: 6.87 G/DL
- BASOPHIL [3]: 0%
- EOSINOPHIL [3]: 0.2%
- ERYTHROCYTE COUNT [3]: 6.02 x10E6/uL
- LEUKOCYTE COUNT [3]: 12.34 x10E3/uL
- LYMPHOCYTE [3]: 83%
- MEAN CORPUSCULAR HEMOGLOBIN [3]: 23.92 pg
- MEAN CORPUSCULAR VOLUME [3]: 60.66 fL
- MONOCYTE [3]: 3%
- NEUTROPHIL [3]: 13.8%
- PLATELET COUNT [3]: 1190.6 x10E3/uL
- ALANINE AMINOTRANSFERASE [4]: 43 u/L
- ALKALINE PHOSPHATASE [4]: 393 u/L
- ASPARTATE AMINOTRANSFERASE [4]: 62.33 u/L
- CHOLESTEROL [4]: 65.5 mg/dL
- CREATINE PHOSPHOKINASE [4]: 130.67 u/L
- CREATININE [4]: 0.58 mg/dL
- GLUCOSE [4]: 180.67 mg/dL
- PHOSPHORUS [4]: 11.28 mg/dL
- POTASSIUM [4]: 7.05 MEQ/L
- TOTAL BILIRUBIN [4]: 0.72 mg/dL
- TOTAL PROTEIN [4]: 6.83 G/DL
- BASOPHIL [5]: 0%
- EOSINOPHIL [5]: 0%
- ERYTHROCYTE COUNT [5]: 5.85 x10E6/uL
- LEUKOCYTE COUNT [5]: 13.3 x10E3/uL
- LYMPHOCYTE [5]: 81.67%
- MEAN CORPUSCULAR HEMOGLOBIN [5]: 24.6 pg
- MEAN CORPUSCULAR HEMOGLOBIN CONCENTRATION [5]: 40.7 G/DL
- MEAN CORPUSCULAR VOLUME [5]: 60.33 fL
- MONOCYTE [5]: 2.67%
- NEUTROPHIL [5]: 15.67%
- PLATELET COUNT [5]: 839 x10E3/uL
- ALANINE AMINOTRANSFERASE [6]: 41.67 u/L
- ALBUMIN [6]: 3.7 G/DL
- ALKALINE PHOSPHATASE [6]: 316 u/L
- ASPARTATE AMINOTRANSFERASE [6]: 67 u/L
- BLOOD UREA NITROGEN [6]: 14.33 mg/dL
- CREATININE [6]: 0.77 mg/dL
- GLUCOSE [6]: 176.33 mg/dL
- PHOSPHORUS [6]: 11.3 mg/dL
- POTASSIUM [6]: 6.83 MEQ/L
- SODIUM [6]: 150 MEQ/L
- TOTAL BILIRUBIN [6]: 0.87 mg/dL
- TOTAL PROTEIN [6]: 6.77 G/DL
- BASOPHIL [7]: 0%
- EOSINOPHIL [7]: 0.33%
- ERYTHROCYTE COUNT [7]: 6.34 x10E6/uL
- HEMATOCRIT [7]: 37.4%
- HEMOGLOBIN [7]: 14.6 G/DL
- LEUKOCYTE COUNT [7]: 11.93 x10E3/uL
- LYMPHOCYTE [7]: 83%
- MEAN CORPUSCULAR HEMOGLOBIN [7]: 23 pg
- MEAN CORPUSCULAR HEMOGLOBIN CONCENTRATION [7]: 39.03 G/DL
- MEAN CORPUSCULAR VOLUME [7]: 58.97 fL
- NEUTROPHIL [7]: 14.33%
- PLATELET COUNT [7]: 1027.67 x10E3/uL
- ALANINE AMINOTRANSFERASE [8]: 42.67 u/L
- ALKALINE PHOSPHATASE [8]: 411.33 u/L
- ASPARTATE AMINOTRANSFERASE [8]: 68.33 u/L
- BLOOD UREA NITROGEN [8]: 15.67 mg/dL
- CHOLESTEROL [8]: 64.33 mg/dL
- CREATINE PHOSPHOKINASE [8]: 121.67 u/L
- CREATININE [8]: 0.63 mg/dL
- PHOSPHORUS [8]: 10.87 mg/dL
- POTASSIUM [8]: 6.6 MEQ/L
- SODIUM [8]: 149.67 MEQ/L
- TOTAL BILIRUBIN [8]: 0.73 mg/dL
- TOTAL PROTEIN [8]: 6.7 G/DL

From ChEMBL document CHEMBL3885881, “DrugMatrix”
